In US12263248B2, “Compounds and compositions for intracellular delivery of therapeutic agents” (ModernaTX, Inc., priority 2018, dated 2025):

Experiments:
[1] = tested on: luciferase (Luc) mRNA; experiment: Luc expression in liver, lung, spleen and femur 6 hours after intravenous administration; format: in vivo; details: mice, intravenous, 0.5 mpk
Description: The efficacy of the nanoparticle compositions presented in Table 1A was further evaluated by measuring the expression of modified luciferase in the liver, lung, spleen, and femur upon administration of a given composition. Formulations were administered intravenously to mice (n=3) at a dosage of 0.5 mpk and bioluminescence measured after 6 hours. The standard MC3 formulation and a PBS control were also tested. […] Flux in the liver was lowest for compositions including Compounds 58, 59, 137, and 141. Flux in the spleen was highest for compositions including Compounds 4, 7, 33, 34, 48, 53, 108, 129, 130, and 148, and lowest for compositions including Compounds 9, 59, 124, and 141.
(§1) Whole body and ex vivo organ bioluminescent imaging of mice: CD-1 mice were injected 15 minutes prior to the imaging timepoint intraperitoneally (IP) with 200 μL Xenolight D-luciferin K+ salt, diluted in PBS just prior to use to a concentration of 15 mg/mL. Ex vivo imaging of organs was completed within 25 minutes of luciferin administration. All images were quantified by region of interest for total flux.

[2] = Apparent (surface) pKa of the LNP formulation (TNS assay); format: physicochemical; details: Table 1A
Description: Using sodium hydroxide (1 M) and hydrochloric acid (1 M), 21 unique buffers were prepared from the master buffer stock at pH values between about 3 and 12. Next, a stock of 300 μM 6-(p-Toluidino)-2-naphthalenesulfonic acid sodium salt (TNS reagent) in DMSO was prepared and the LNP was mixed with the desired formulation buffer at a concentration of 0.04 mg/mL mRNA. This assay has been validated in 1× PBS and 20 mM Tris w/8% sucrose buffer. The buffer solutions at various pH values were added to a 96-well plate in triplicate for each pH. To each well was added 3.26 μL of LNP sample at a mRNA concentration of 0.04 mg/mL and 2.0 μL of 300 μM TNS reagent solution. After careful mixing, the resulting fluorescence values were read for each plate to create a sigmoidal plot of the fluorescence values vs. buffer pH. The […] inflection point of this curve is the apparent pKa of the LNP formulation.

[3] = Encapsulation efficiency of RNA (QUANT-IT RIBOGREEN RNA assay); format: physicochemical; details: Table 1A
Description: For nanoparticle compositions including an RNA, a QUANT-IT™ RIBOGREEN® RNA assay (Invitrogen Corporation Carlsbad, CA) can be used to evaluate the encapsulation of an RNA by the nanoparticle composition. The samples are diluted to a concentration of approximately […] in a TE buffer solution (10 mM Tris-HCl, 1 mM EDTA, pH 7.5). 50 μL of the diluted samples are transferred to a polystyrene 96 well plate and either 50 μL of TE buffer or 50 μL of a 2% Triton X-100 solution is added to the wells. The plate is incubated at a temperature of 37° C. for 15 minutes. The RIBOGREEN® reagent is diluted 1:100 in TE buffer, and 100 μL of this solution is added to each well. The fluorescence intensity can be measured using a fluorescence plate reader (Wallac Victor 1420 Multilabel Counter; Perkin Elmer, Waltham, MA) at an excitation wavelength of, for example, about 480 nm and an emission wavelength of, for example, about 520 nm. The fluorescence values of the reagent blank are subtracted from that of each of the samples and the percentage of free RNA is determined by dividing the fluorescence intensity of the intact sample (without addition of Triton X-100) by the fluorescence value of the disrupted sample (caused by the addition of Triton X-100).

[4] = tested on: luciferase (Luc) mRNA; experiment: Luc expression, whole body bioluminescence after intravenous administration to mice; format: in vivo; details: for Fold increase in total body Luc Flux relative to MC3 at 6 h: Table 3A; for Total Flux 3 hours / Total Flux 6 hours / Total Flux 24 hours: mice, i.v., 0.5 mg/kg, Luc mRNA
Description: In order to monitor how effectively various nanoparticle compositions deliver therapeutic and/or prophylactics to targeted cells, different nanoparticle compositions including a particular therapeutic and/or prophylactic (for example, a modified or naturally occurring RNA such as an mRNA) are prepared and administered to rodent populations. Mice are intravenously, intramuscularly, intraarterially, or intratumorally administered a single dose including a nanoparticle composition with a formulation such as those provided in Example 3. In some instances, mice may be made to inhale doses. Dose sizes may range from 0.001 mg/kg to 10 mg/kg, where 10 mg/kg describes a dose including 10 mg of a therapeutic and/or prophylactic in a nanoparticle composition for each 1 kg of body mass of the mouse. A control composition including PBS may also be employed.
Upon administration of nanoparticle compositions to mice, dose delivery profiles, dose responses, and toxicity of particular formulations and doses thereof can be measured by enzyme-linked immunosorbent assays (ELISA), bioluminescent imaging, or other methods. For nanoparticle compositions including mRNA, time courses of protein expression can also be evaluated. Samples collected from the rodents for evaluation may include blood, sera, and tissue (for example, muscle tissue from the site of an intramuscular injection and internal tissue); sample collection may involve sacrifice of the animals.
The efficacy of the nanoparticle compositions presented in Table 1A was evaluated with a bioluminescence study. Formulations were administered intravenously to mice (n=6) at a dosage of 0.5 mg/kg (mpk) and bioluminescence measured at 3, 6, and 24 hour time points. The standard MC3 formulation and, in some instances, a control (e.g., a PBS control) were evaluated for comparison. […] In general, flux decreased as time progressed to less than 10% of the initial flux.
as §1

[5] = Particle size and polydispersity index of nanoparticle compositions (Zetasizer Nano ZS); format: physicochemical; details: Table 1A; for Size (nm): lipid:DSPC:cholesterol:PEG-DMG 50:10:38.5:1.5 mol %
Description: A Zetasizer Nano ZS (Malvern Instruments Ltd, Malvern, Worcestershire, UK) can be used to determine the particle size, the polydispersity index (PDI) and the zeta potential of the nanoparticle compositions in 1×PBS in determining particle size and 15 mM PBS in determining zeta potential.

SMILES	Total Flux Liver [1]	Total Flux Lung [1]	Total Flux Spleen [1]	pKa [2]	EE (%) [3]	Fold increase in total body Luc Flux relative to MC3 at 6 h ([4]; i.v. administration)	flux measured at 6 h relative to the MC3 formulation ([4]; i.v. administration, in words)	Total Flux 3 hours [4]	Total Flux 6 hours [4]	Total Flux 24 hours [4]	PDI [5]	Size (nm) [5]
CCCCCCCCC(CCCCCCCC)OC(=O)CCCCCCCN(CCO)CCCC(=O)OCC1CC1CCCCCC (centres unmarked) [Compound 55, heptadecan-9-yl 8-((4-((2-hexylcyclopropyl)methoxy)-4-oxobutyl)(2-hydroxyethyl)amino)octanoate]	1.92E+09	7.02E+06	2.63E+07	6.44	97.03%	1.52	higher flux than MC3 formulations	5.07E+10	1.68E+10	4.06E+08	0.16	91.6 nm
CCCCCCCCC(CCCCCCCC)OC(=O)CCCCCCCN(CCO)CCCCCCCC(=O)OC(CCCCCCCC)C1CC1 (centres unmarked) [Compound 65, 1-Cyclopropylnonyl 8-((8-(heptadecan-9-yloxy)-8-oxooctyl)(2-hydroxyethyl)amino)octanoate]	9.56E+09	3.79E+07	6.57E+07	6.36	98.2%	3.16		6.56E+10	7.01E+10	7.50E+08	0.12	63.9 nm
CCCCCCCCC(CCCCCCCC)OC(=O)CCCCCCCN(CCO)CCCC(=O)OC1CCC(CCCCC)CC1 (centres unmarked) [Compound 67, Heptadecan-9-yl 8-((2-hydroxyethyl)(4-oxo-4-((4-pentylcyclohexyl)oxy)butyl)amino)octanoate]	3.60E+09	1.68E+07	2.55E+07	6.38	98%	2.08		4.24E+10	4.62E+10	4.51E+08	0.13	77 nm
CCCCCCCCC(CCCCCCCC)OC(=O)CCCCCCCN(CCO)CCCCCC(=O)OC1CCC(CCCCC)CC1 (centres unmarked) [Compound 68, Heptadecan-9-yl 8-((2-hydroxyethyl)(6-oxo-6-((4-pentylcyclohexyl)oxy)hexyl)amino)octanoate]	8.42E+09	3.98E+07	6.69E+07	6.69	97.7%	3.68		5.22E+10	8.16E+10	2.15E+09	0.14	76.8 nm
CCCCCCCCC(C)OC(=O)CCCN(CCO)CCCCCCCC(=O)OC(CCCCCCCC)CCCCCCCC (centres unmarked) [Compound 70, Heptadecan-9-yl 8-((4-(decan-2-yloxy)-4-oxobutyl)(2-hydroxyethyl)amino)octanoate]	8.55E+08	6.32E+06	2.06E+06	6.51	97.5%			4.70E+10	2.49E+10	9.27E+08	0.15	73.7 nm
CCCCCCCCC(CCCCCCCC)OC(=O)CCCCCCCN(CCO)CCCC(=O)OC(CCCCCC)CCCCCCCC (centres unmarked) [Compound 73, Heptadecan-9-yl 8-((2-hydroxyethyl)(4-oxo-4-(pentadecan-7-yloxy)butyl)amino)octanoate]	7.93E+08	6.17E+06	9.45E+06	5.95	95.7%	0.48		8.10E+09	1.07E+10	1.27E+08	0.13	59.2 nm
CCCCCCCCC(CCC)OC(=O)CCCN(CCO)CCCCCCCC(=O)OC(CCCCCCCC)CCCCCCCC (centres unmarked) [Compound 74, Heptadecan-9-yl 8-((4-(dodecan-4-yloxy)-4-oxobutyl)(2-hydroxyethyl)amino)octanoate]	1.99E+09	6.93E+06	2.26E+07	6.08	97%	1.005		3.27E+10	2.23E+10	2.75E+08	0.15	65.6 nm
CCCCCCCCCOC(=O)CCCCCCCN(CCO)CCCCCCCC(=O)OC1CCC(CCCCC)CC1 (centres unmarked) [Compound 79, Nonyl 8-((2-hydroxyethyl)(8-oxo-8-((4-pentylcyclohexyl)oxy)octyl)amino)octanoate]	3.15E+06	6.13E+04	6.45E+05	7.53	89.1%			3.23E+08	5.27E+08	3.08E+07	0.18	93.7 nm
CCCCCCCCCOC(=O)CCCCCCCN(CCO)CCCCCCCC(=O)OC1CCC(C2CCCCC2)CC1 (centres unmarked) [Compound 80, [1,1′—Bi(cyclohexan)]-4-yl 8-((2-hydroxyethyl)(8-(nonyloxy)-8-oxooctyl)amino)octanoate]	1.09E+07	8.97E+04	4.71E+06	7.52	90.7%			2.76E+08	3.26E+08	1.54E+07	0.19	118 nm
CCCCCCCCCOC(=O)CCCCCCCN(CCO)CCCCCCCC(=O)OC1CCCCCCCCCCCCCC1 [Compound 81, Cyclopentadecyl 8-((2-hydroxyethyl)(8-(nonyloxy)-8-oxooctyl)amino)octanoate]	2.74E+08	6.23E+06	4.49E+07	7.14	95.4%			7.87E+09	9.96E+09	5.13E+08	0.14	99.2 nm
